ChEMBL document CHEMBL1151909, “Mechanism of action of N-phenyl-N'-(2-chloroethyl)ureas in the colchicine-binding site at the interface between alpha- and beta-tubulin” (2009)

test system: HT-29; assay: Antiproliferative activity against human HT-29 cells after 48 hrs by SRB assay; type: functional; conditions: HT-29, 48 h

Row | SMILES | GI50
1 | COc1ccc(/C=C\c2ccc(NC(=O)NCCCl)cc2)cc1O | 2.4 µM
2 | CCCCCc1cccc(NC(=O)NCCCl)c1 | 0.62 µM
3 | COc1ccc(CCc2cccc(NC(=O)NCCCl)c2)cc1O | 9.6 µM
4 | O=C(NCCCl)Nc1cccc(CCCCCCO)c1 | 0.3 µM
5 | COCCCCCc1cccc(NC(=O)NCCCl)c1 | 0.84 µM
6 | CC(=O)CCCCc1cccc(NC(=O)NCCCl)c1 | 0.6 µM
7 | O=C(NCCCl)Nc1cccc(CCCCCO)c1 | 0.16 µM
8 | O=C(NCCCl)Nc1cccc(CCCCO)c1 | 0.71 µM
